Among the data in the OligoGym collection are target mRNA knockdown values, retold here.

Values joined by “and” are separate entries in the source; they are usually repeats but may differ in a detail not shown here. Equal entries are not always repeated. HELM strings list units from the 5' end as sugar, base in round brackets, then linkage (d deoxyribose, r ribose, m 2'-O-methyl, p phosphodiester). Strings are as the collection lists them, not checked against the first reports. ss, as = sense and antisense strand; [fl2r] = 2'-fluoro
Note: test system not given here.

The conditions of the series: siRNA.
As to “RNA1{r(A)p.r(G)p.r(C)p.r(C)p.[fl2r](C)p.r(A)p.r(G)p.r(A)p.[fl2r](U)p.r(A)p.r(G)p.r(C)p.r(U)p.r(C)p.r(U)p.r(U)p.[fl2r](C)p.r(A)p.r(G)p.r(T)p.r(T)}|RNA2{r(C)p.[fl2r](U)p.r(G)p.r(A)p.r(A)p.r(G)p.r(A)p.r(G)p.r(C)p.[fl2r](U)p.r(A)p.r(U)p.r(C)p.[fl2r](U)p.r(G)p.r(G)p.r(G)p.r(C)p.r(U)p.r(T)p.r(T)}$$$RNA1{StrandType:ss}|RNA2{StrandType:as}$”, the target mRNA knockdown was 61%.

With “RNA1{r(A)p.r(G)p.r(C)p.r(C)p.r(C)p.r(A)p.r(G)p.r(A)p.[fl2r](U)p.r(A)p.r(G)p.r(C)p.r(U)p.r(C)p.r(U)p.r(U)p.r(C)p.r(A)p.r(G)p.r(T)p.r(T)}|RNA2{r(C)p.r(U)p.r(G)p.r(A)p.r(A)p.r(G)p.r(A)p.r(G)p.r(C)p.[fl2r](U)p.r(A)p.r(U)p.r(C)p.r(U)p.r(G)p.r(G)p.r(G)p.r(C)p.r(U)p.r(T)p.r(T)}$$$RNA1{StrandType:ss}|RNA2{StrandType:as}$”, the target mRNA knockdown was 69%. The value for “RNA1{r(A)p.r(G)p.r(C)p.r(C)p.r(U)p.r(C)p.[fl2r](C)p.r(A)p.r(A)p.r(A)p.r(C)p.r(U)p.r(C)p.r(C)p.[fl2r](U)p.r(A)p.r(G)p.r(C)p.r(U)p.r(T)p.r(T)}|RNA2{r(A)p.r(G)p.r(C)p.r(U)p.r(A)p.r(G)p.r(G)p.r(A)p.r(G)p.r(U)p.r(U)p.r(U)p.r(G)p.r(G)p.r(A)p.r(G)p.r(G)p.r(C)p.r(U)p.r(T)p.r(T)}$$$RNA1{StrandType:ss}|RNA2{StrandType:as}$” was 32%; that for “RNA1{r(A)p.r(G)p.r(C)p.r(C)p.r(U)p.r(C)p.m(C)p.r(A)p.r(A)p.r(A)p.r(C)p.r(U)p.r(C)p.r(C)p.m(U)p.r(A)p.r(G)p.r(C)p.r(U)p.r(T)p.r(T)}|RNA2{r(A)p.r(G)p.r(C)p.m(U)p.r(A)p.r(G)p.r(G)p.r(A)p.r(G)p.r(U)p.r(U)p.m(U)p.r(G)p.r(G)p.r(A)p.r(G)p.r(G)p.r(C)p.r(U)p.r(T)p.r(T)}$$$RNA1{StrandType:ss}|RNA2{StrandType:as}$” was 65%. For the substance “RNA1{r(A)p.r(G)p.r(C)p.r(C)p.r(U)p.r(C)p.r(C)p.r(A)p.r(A)p.[fl2r](A)p.r(C)p.r(U)p.r(C)p.r(C)p.r(U)p.r(A)p.r(G)p.[fl2r](C)p.r(U)p.r(T)p.r(T)}|RNA2{r(A)p.r(G)p.r(C)p.[fl2r](U)p.r(A)p.r(G)p.r(G)p.r(A)p.r(G)p.r(U)p.r(U)p.r(U)p.r(G)p.r(G)p.r(A)p.r(G)p.r(G)p.r(C)p.r(U)p.r(T)p.r(T)}$$$RNA1{StrandType:ss}|RNA2{StrandType:as}$”, the target mRNA knockdown is 69%. The result for “RNA1{r(A)p.r(G)p.r(C)p.r(C)p.r(U)p.r(C)p.r(C)p.r(A)p.r(A)p.r(A)p.r(C)p.r(U)p.r(C)p.r(C)p.r(U)p.r(A)p.r(G)p.r(C)p.r(U)p.r(T)p.r(T)}|RNA2{r(A)p.r(G)p.r(C)p.m(U)p.r(A)p.r(G)p.r(G)p.r(A)p.r(G)p.r(U)p.r(U)p.m(U)p.r(G)p.r(G)p.r(A)p.r(G)p.r(G)p.r(C)p.r(U)p.r(T)p.r(T)}$$$RNA1{StrandType:ss}|RNA2{StrandType:as}$” reads 70%.

“RNA1{r(A)p.r(G)p.r(C)p.r(G)p.r(A)p.r(U)p.r(C)p.r(C)p.r(C)p.m(G)p.r(A)p.r(A)p.m(C)p.r(A)p.r(A)p.r(G)p.m(U)p.r(A)p.r(U)p.r(T)p.r(T)}|RNA2{r(A)p.m(U)p.r(A)p.r(C)p.r(U)p.m(U)p.r(G)p.r(U)p.r(U)p.r(C)p.r(G)p.r(G)p.r(G)p.r(A)p.r(U)p.r(C)p.r(G)p.r(C)p.r(U)p.r(T)p.r(T)}$$$RNA1{StrandType:ss}|RNA2{StrandType:as}$” yielded a target mRNA knockdown of 84%. The result for “RNA1{r(A)p.r(G)p.r(C)p.r(G)p.r(A)p.r(U)p.r(C)p.r(C)p.r(C)p.r(G)p.r(A)p.r(A)p.r(C)p.r(A)p.r(A)p.r(G)p.r(U)p.r(A)p.r(U)p.r(T)p.r(T)}|RNA2{r(A)p.m(U)p.r(A)p.r(C)p.r(U)p.r(U)p.r(G)p.r(U)p.r(U)p.r(C)p.r(G)p.r(G)p.r(G)p.r(A)p.r(U)p.r(C)p.r(G)p.r(C)p.r(U)p.r(T)p.r(T)}$$$RNA1{StrandType:ss}|RNA2{StrandType:as}$” reads 85%.

For the substance “RNA1{r(A)p.r(G)p.r(C)p.r(G)p.r(G)p.r(G)p.r(G)p.m(U)p.r(A)p.m(U)p.r(G)p.r(A)p.r(A)p.r(G)p.m(A)p.r(G)p.r(C)p.r(U)p.r(U)p.r(T)p.r(T)}|RNA2{r(A)p.r(A)p.r(G)p.r(C)p.r(U)p.r(C)p.r(U)p.r(U)p.m(C)p.r(A)p.m(U)p.r(A)p.r(C)p.r(C)p.r(C)p.r(C)p.r(G)p.r(C)p.r(U)p.r(T)p.r(T)}$$$RNA1{StrandType:ss}|RNA2{StrandType:as}$”, the target mRNA knockdown came to 85%. For “RNA1{r(A)p.r(G)p.r(C)p.r(G)p.r(G)p.r(G)p.r(G)p.m(U)p.r(A)p.r(U)p.r(G)p.r(A)p.r(A)p.r(G)p.r(A)p.r(G)p.r(C)p.r(U)p.r(U)p.r(T)p.r(T)}|RNA2{r(A)p.r(A)p.r(G)p.r(C)p.r(U)p.r(C)p.r(U)p.r(U)p.r(C)p.r(A)p.m(U)p.r(A)p.r(C)p.r(C)p.r(C)p.r(C)p.r(G)p.r(C)p.r(U)p.r(T)p.r(T)}$$$RNA1{StrandType:ss}|RNA2{StrandType:as}$”, the target mRNA knockdown was found to be 82%. In turn, “RNA1{r(A)p.r(G)p.r(C)p.r(U)p.r(C)p.r(U)p.r(U)p.m(U)p.r(G)p.r(U)p.m(C)p.r(A)p.r(C)p.m(C)p.r(U)p.m(C)p.r(U)p.r(C)p.r(U)p.r(T)p.r(T)}|RNA2{r(A)p.r(G)p.r(A)p.r(G)p.r(A)p.r(G)p.r(G)p.m(U)p.r(G)p.r(A)p.m(C)p.r(A)p.r(A)p.r(A)p.r(G)p.r(A)p.r(G)p.r(C)p.r(U)p.r(T)p.r(T)}$$$RNA1{StrandType:ss}|RNA2{StrandType:as}$” came in with a target mRNA knockdown of 34%. On to “RNA1{r(A)p.r(G)p.r(C)p.r(U)p.r(C)p.r(U)p.r(U)p.r(U)p.r(G)p.r(U)p.r(C)p.m(A)p.r(C)p.r(C)p.r(U)p.r(C)p.r(U)p.r(C)p.r(U)p.r(T)p.r(T)}|RNA2{r(A)p.r(G)p.r(A)p.r(G)p.r(A)p.r(G)p.r(G)p.r(U)p.r(G)p.r(A)p.m(C)p.m(A)p.r(A)p.r(A)p.r(G)p.r(A)p.r(G)p.r(C)p.r(U)p.r(T)p.r(T)}$$$RNA1{StrandType:ss}|RNA2{StrandType:as}$”, for which the target mRNA knockdown stood at 37%.

For “RNA1{r(A)p.r(G)p.r(G)p.r(A)p.r(C)p.r(G)p.r(G)p.m(U)p.r(A)p.r(C)p.r(U)p.r(U)p.m(U)p.r(C)p.r(G)p.m(A)p.r(A)p.r(A)p.r(G)p.r(T)p.r(T)}|RNA2{r(C)p.r(U)p.r(U)p.r(U)p.r(C)p.r(G)p.r(A)p.r(A)p.r(A)p.r(G)p.m(U)p.r(A)p.r(C)p.r(C)p.r(G)p.r(U)p.r(C)p.r(C)p.r(U)p.r(T)p.r(T)}$$$RNA1{StrandType:ss}|RNA2{StrandType:as}$”, the target mRNA knockdown is 44%.

“RNA1{r(A)p.r(G)p.r(G)p.r(A)p.r(C)p.r(G)p.r(G)p.r(U)p.r(A)p.r(C)p.r(U)p.r(U)p.r(U)p.r(C)p.r(G)p.r(A)p.r(A)p.r(A)p.r(G)p.r(T)p.r(T)}|RNA2{r(C)p.r(U)p.r(U)p.r(U)p.r(C)p.r(G)p.r(A)p.r(A)p.r(A)p.r(G)p.r(U)p.m(A)p.r(C)p.r(C)p.r(G)p.r(U)p.r(C)p.r(C)p.r(U)p.r(T)p.r(T)}$$$RNA1{StrandType:ss}|RNA2{StrandType:as}$” displayed a target mRNA knockdown of 46%. “RNA1{r(A)p.r(G)p.r(G)p.r(A)p.r(G)p.r(A)p.r(C)p.r(C)p.r(G)p.[fl2r](U)p.r(G)p.r(A)p.[fl2r](C)p.r(A)p.r(U)p.r(U)p.r(U)p.r(C)p.r(G)p.r(T)p.r(T)}|RNA2{r(C)p.r(G)p.r(A)p.r(A)p.r(A)p.[fl2r](U)p.r(G)p.r(U)p.r(C)p.[fl2r](A)p.r(C)p.r(G)p.r(G)p.r(U)p.r(C)p.r(U)p.r(C)p.r(C)p.r(U)p.r(T)p.r(T)}$$$RNA1{StrandType:ss}|RNA2{StrandType:as}$” came in with a target mRNA knockdown of 69%. The result for “RNA1{r(A)p.r(G)p.r(G)p.r(A)p.r(G)p.r(A)p.r(C)p.r(C)p.r(G)p.[fl2r](U)p.r(G)p.r(A)p.[fl2r](C)p.r(A)p.r(U)p.r(U)p.r(U)p.r(C)p.r(G)p.r(T)p.r(T)}|RNA2{r(C)p.r(G)p.r(A)p.r(A)p.r(A)p.[fl2r](U)p.r(G)p.r(U)p.r(C)p.r(A)p.r(C)p.r(G)p.r(G)p.r(U)p.r(C)p.r(U)p.r(C)p.r(C)p.r(U)p.r(T)p.r(T)}$$$RNA1{StrandType:ss}|RNA2{StrandType:as}$” reads 72%; that for “RNA1{r(A)p.r(G)p.r(U)p.[fl2r](U)p.r(A)p.r(A)p.r(C)p.r(C)p.r(C)p.r(G)p.r(G)p.r(G)p.r(A)p.r(C)p.r(U)p.[fl2r](U)p.r(G)p.r(G)p.r(A)p.r(T)p.r(T)}|RNA2{r(U)p.r(C)p.[fl2r](C)p.r(A)p.r(A)p.r(G)p.r(U)p.r(C)p.r(C)p.r(C)p.r(G)p.r(G)p.r(G)p.r(U)p.[fl2r](U)p.r(A)p.r(A)p.r(C)p.r(U)p.r(T)p.r(T)}$$$RNA1{StrandType:ss}|RNA2{StrandType:as}$”, 85% and 86%.

The substance “RNA1{r(A)p.r(G)p.r(U)p.m(U)p.r(A)p.r(A)p.r(C)p.r(C)p.r(C)p.r(G)p.r(G)p.r(G)p.r(A)p.r(C)p.r(U)p.m(U)p.r(G)p.r(G)p.r(A)p.r(T)p.r(T)}|RNA2{r(U)p.r(C)p.m(C)p.r(A)p.r(A)p.r(G)p.r(U)p.r(C)p.r(C)p.r(C)p.r(G)p.r(G)p.r(G)p.r(U)p.m(U)p.r(A)p.r(A)p.r(C)p.r(U)p.r(T)p.r(T)}$$$RNA1{StrandType:ss}|RNA2{StrandType:as}$” gave a target mRNA knockdown of 90%.

In turn, “RNA1{r(A)p.r(G)p.r(U)p.m(U)p.r(A)p.r(A)p.r(C)p.r(C)p.r(C)p.r(G)p.r(G)p.r(G)p.r(A)p.r(C)p.r(U)p.r(U)p.r(G)p.r(G)p.r(A)p.r(T)p.r(T)}|RNA2{r(U)p.r(C)p.m(C)p.r(A)p.r(A)p.r(G)p.r(U)p.r(C)p.r(C)p.r(C)p.r(G)p.r(G)p.r(G)p.r(U)p.r(U)p.r(A)p.r(A)p.r(C)p.r(U)p.r(T)p.r(T)}$$$RNA1{StrandType:ss}|RNA2{StrandType:as}$” displayed a target mRNA knockdown of 91%.

On to “RNA1{r(A)p.r(G)p.r(U)p.r(C)p.r(C)p.r(C)p.m(U)p.r(G)p.r(G)p.r(A)p.r(G)p.r(C)p.r(C)p.r(U)p.m(U)p.r(A)p.r(A)p.r(A)p.r(C)p.r(T)p.r(T)}|RNA2{r(G)p.r(U)p.r(U)p.m(U)p.r(A)p.r(A)p.r(G)p.r(G)p.r(C)p.r(U)p.r(C)p.m(C)p.r(A)p.r(G)p.r(G)p.r(G)p.r(A)p.r(C)p.r(U)p.r(T)p.r(T)}$$$RNA1{StrandType:ss}|RNA2{StrandType:as}$”, for which the target mRNA knockdown stood at 65%.
